Read-outs that look alike come from different tables or passages of the source.
Test system: DLD-1 BRCA2−/− cells
Assay: Homologous recombination synthetic lethal inhibition of proliferation, DLD-1 BRCA2-/- (Cell Titre Glo 3D)
Format: cell-based
Conditions: for IC50: Homo sapiens
Procedure, shortened: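 Cells are seeded in RPMI 1640 (phenol red free, 10% FBS, GlutaMAX) onto pre-dosed compound (10 μM to 0.51 nM, three-fold). Plates are incubated at 37 °C, and medium plus compound are refreshed on day 6. Viability is read by CellTiter-Glo 3D at day 7 (DLD-1) or day 12 (DLD-1 BRCA2−/−), and the IC50 is fitted.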

[1] = DLD-1, DLD-1 BRCA2 −/− cells, mean, read-out: POLQ PD Prolif Lumin BRCA2 −/− mean pIC50 (converted)
[2] = DLD-1, first proliferation column (c5), DLD-1 BRCA2-/-, read-out: POLQ PD Prolif Lumin (converted)
[3] = DLD-1, first proliferation column (c5), taken as DLD-1 BRCA2-/-, read-out: POLQ PD Prolif Lumin (converted)
[4] = DLD-1, DLD-1 BRCA2-/- proliferation, column head only partly shown, read-out: POLQ PD Prolif Lumin (converted)
[5] = DLD-1, first proliferation column, DLD-1 BRCA2-/-, read-out: POLQ PD Prolif Lumin (converted)
[6] = DLD-1, DLD-1 BRCA2 −/−, mean, read-out: POLQ PD Prolif Lumin BRCA2 −/− mean pIC50 (converted)

CC1(Oc2ncnc3c2nc(-c2ccc(CC(N)=O)cc2Cl)n3Cc2ccccc2C#N)CC1 [Example T82, 2-(3-chloro-4-(9-(2-cyanobenzyl)-6-(1-methylcyclopropoxy)-9H-purin-8-yl)phenyl)acetamide]
IC50 [1]: 316 nM

Cc1ccnc(Cn2c(-c3ccc(OC(C)CO)cc3Cl)nc3c(OC4(C)CC4)ncnc32)c1 (single isomer, unassigned) [Example T127, 2-(3-chloro-4-(6-(1-methylcyclopropoxy)-9-((4-methylpyridin-2-yl)methyl)-9H-purin-8-yl)phenoxy)propan-1-ol]
IC50 [2]: 251 nM

CC1(Oc2ncnc3c2nc(-c2ccc(CC(N)=O)cc2Cl)n3Cc2cccc(C#N)c2)CC1 [Example T81, 2-(3-chloro-4-(9-(3-cyanobenzyl)-6-(1-methylcyclopropoxy)-9H-purin-8-yl)phenyl)acetamide]
IC50 [1]: 200 nM

Cc1ccnc(Cn2c(-c3ccc(OCC(=O)NC(C)C)cc3Cl)nc3c(OC4(C)CC4)ncnc32)c1 [Example T366, 2-(3-chloro-4-(6-(1-methylcyclopropoxy)-9-((4-methylpyridin-2-yl)methyl)-9H-purin-8-yl)phenoxy)-N-isopropylacetamide]
IC50 [3]: 200 nM

C[C@H](CCOc1cccc(-c2nc3c(OC4(C)CC4)ncnc3n2Cc2cccc(Cl)c2)c1Cl)C(=O)O [Example T297, (R)-4-(2-chloro-3-(9-(3-chlorobenzyl)-6-(1-methylcyclopropoxy)-9H-purin-8-yl)phenoxy)-2-methylbutanoic acid]
IC50 [4]: 63.1 nM

Cc1ccnc(Cn2c(-c3ccc(OCCN4CCNC(=O)C4)cc3Cl)nc3c(OC4(C)CC4)ncnc32)c1 [Example T499, 4-(2-(3-chloro-4-(6-(1-methylcyclopropoxy)-9-((4-methylpyridin-2-yl)methyl)-9H-purin-8-yl)phenoxy)ethyl)piperazin-2-one]
IC50 [2]: 316 nM

CC1(Oc2ncnc3c2nc(-c2ccc(OCCN4C[C@H]5CC[C@@H]4CN5)cc2Cl)n3Cc2ccccc2)CC1 (relative stereo) [Example T604, rel-(1R,4R)-2-(2-(4-(9-benzyl-6-(1-methylcyclopropoxy)-9H-purin-8-yl)-3-chlorophenoxy)ethyl)-2,5-diazabicyclo[2.2.2]octane]
IC50 [5]: 251 nM

CCNC(=O)c1ccc(-c2nc3c(OC4(C)CC4)ncnc3n2Cc2cc(C)ccn2)c(Cl)c1 [Example T114, 3-chloro-N-ethyl-4-(6-(1-methylcyclopropoxy)-9-((4-methylpyridin-2-yl)methyl)-9H-purin-8-yl)benzamide]
IC50 [2]: 316 nM

CC(CCOc1ccc(-c2nc3c(OC4(C)CC4)ncnc3n2Cc2cccc(Cl)c2C#N)c(Cl)c1)C(=O)O (racemic) [Example U37, 4-(3-chloro-4-(9-(3-chloro-2-cyanobenzyl)-6-(1-methylcyclopropoxy)-9H-purin-8-yl)phenoxy)-2-methylbutanoic acid]
IC50 [6]: 2000 nM

Cc1ccc(Cl)cc1Cn1c(-c2ccc(OCCC(C)C(=O)O)cc2Cl)nc2c(OC3(C)CC3)ncnc21 (racemic) [Example U36, 4-(3-chloro-4-(9-(5-chloro-2-methylbenzyl)-6-(1-methylcyclopropoxy)-9H-purin-8-yl)phenoxy)-2-methylbutanoic acid]
IC50 [6]: 316 nM

CC(=O)NCCOc1ccc(-c2nc3c(OC4(C)CC4)ncnc3n2Cc2cc(C)ccn2)c(Cl)c1 [Example T219, N-(2-(3-chloro-4-(6-(1-methylcyclopropoxy)-9-((4-methylpyridin-2-yl)methyl)-9H-purin-8-yl)phenoxy)ethyl)acetamide]
IC50 [4]: 251 nM

CC(CCOc1ccc(-c2nc3c(OC4(C)CC4)ncnc3n2Cc2cc(F)cc(Cl)c2)c(Cl)c1)C(=O)O (single isomer, unassigned) [Example T273, 4-(3-chloro-4-(9-(3-chloro-5-fluorobenzyl)-6-(1-methylcyclopropoxy)-9H-purin-8-yl)phenoxy)-2-methylbutanoic acid]
POLQ PD Prolif Lumin (DLD-1 BRCA2-/- proliferation, column head only partly shown): 6.8

CC(CCOc1ccc(-c2nc3c(OC4(C)CC4)ncnc3n2Cc2cc(C(F)(F)F)cc(Cl)c2F)c(Cl)c1)C(=O)O (racemic) [Example U35, 4-(3-chloro-4-(9-(3-chloro-2-fluoro-5-(trifluoromethyl)benzyl)-6-(1-methylcyclopropoxy)-9H-purin-8-yl)phenoxy)-2-methylbutanoic acid]
IC50 [6]: 158 nM

Cc1ccnc(Cn2c(-c3ccc(OCCNC(N)=O)cc3Cl)nc3c(OC4(C)CC4)ncnc32)c1 [Example T133, 1-(2-(3-chloro-4-(6-(1-methylcyclopropoxy)-9-((4-methylpyridin-2-yl)methyl)-9H-purin-8-yl)phenoxy)ethyl)urea]
IC50 [2]: 251 nM

Cc1ccnc(Cn2c(-c3ccc(OCC(=O)N4CC[C@@H](C#N)C4)cc3Cl)nc3c(OC4(C)CC4)ncnc32)c1 [Example T538, (R)-1-(2-(3-chloro-4-(6-(1-methylcyclopropoxy)-9-((4-methylpyridin-2-yl)methyl)-9H-purin-8-yl)phenoxy)acetyl)pyrrolidine-3-carbonitrile]
IC50 [2]: 501 nM

Cc1ccnc(Cn2c(-c3ccc(OC[C@H]4CNC(=O)O4)cc3Cl)nc3c(OC4(C)CC4)ncnc32)c1 [Example T188, (R)-5-((3-chloro-4-(6-(1-methylcyclopropoxy)-9-((4-methylpyridin-2-yl)methyl)-9H-purin-8-yl)phenoxy)methyl)oxazolidin-2-one]
IC50 [2]: 501 nM

Cc1ccnc(Cn2c(-c3ccc(C(=O)N4CCC[C@H](F)C4)cc3Cl)nc3c(OC4(C)CC4)ncnc32)c1 [Example T418, (S)-(3-chloro-4-(6-(1-methylcyclopropoxy)-9-((4-methylpyridin-2-yl)methyl)-9H-purin-8-yl)phenyl)(3-fluoropiperidin-1-yl)methanone]
IC50 (DLD-1, proliferation, luminescence, taken as DLD-1 BRCA2-/-, read-out: POLQ PD Prolif Lumin (converted)): 631 nM

Cc1ccnc(Cn2c(-c3ccc(C(=O)N(C)CCC#N)cc3Cl)nc3c(OC4(C)CC4)ncnc32)c1 [Example T286, 3-chloro-N-(2-cyanoethyl)-N-methyl-4-(6-(1-methylcyclopropoxy)-9-((4-methylpyridin-2-yl)methyl)-9H-purin-8-yl)benzamide]
IC50 [4]: 1260 nM

Cc1ccnc(Cn2c(-c3ccc(CC(=O)N4CC(N5CCC5)C4)cc3Cl)nc3c(OC4(C)CC4)ncnc32)c1 [Example T603, 1-([1,3′-biazetidin]-1′-yl)-2-(3-chloro-4-(6-(1-methylcyclopropoxy)-9-((4-methylpyridin-2-yl)methyl)-9H-purin-8-yl)phenyl)ethan-1-one]
IC50 [5]: 794 nM

COc1ccc(F)cc1Cn1c(-c2cccc(OCC(C)CC(=O)O)c2Cl)nc2c(OC3(C)CC3)ncnc21 (single isomer, unassigned) [Example U80, 4-(2-chloro-3-(9-(5-fluoro-2-methoxybenzyl)-6-(1-methylcyclopropoxy)-9H-purin-8-yl)phenoxy)-3-methylbutanoic acid]
POLQ PD Prolif Lumin BRCA2 −/− mean pIC50 (DLD-1 BRCA2 −/−, mean): 8

Cc1ccnc(Cn2c(-c3ccc(N)cc3Cl)nc3c(OC4(C)CC4)ncnc32)c1 [Example T3, 3-chloro-4-(6-(1-methylcyclopropoxy)-9-((4-methylpyridin-2-yl)methyl)-9H-purin-8-yl)aniline]
IC50 [1]: 200 nM

Cc1cc(Cn2c(-c3ccc(CC(N)=O)cc3Cl)nc3c(OC4(C)CC4)ncnc32)ncn1 [Example T19, 2-(3-chloro-4-(6-(1-methylcyclopropoxy)-9-((6-methylpyrimidin-4-yl)methyl)-9H-purin-8-yl)phenyl)acetamide]
IC50 [1]: > 10000 nM

CC1(Oc2ncnc3c2nc(-c2ccc(OCCN4CCN[C@@H](CC#N)C4)cc2Cl)n3Cc2ccccc2)CC1 [Example R23, (S)-2-(4-(2-(4-(9-benzyl-6-(1-methylcyclopropoxy)-9H-purin-8-yl)-3-chlorophenoxy)ethyl)piperazin-2-yl)acetonitrile]
IC50 (DLD-1, 288 h, DLD-1 BRCA2−/− cells, 12 days, read-out: POLQ PD Prolif Lumin BRCA2 −/− mean pIC50 (converted)): 63.1 nM

CC1(Oc2ncnc3c2nc(-c2ccc(CC(N)=O)cc2Cl)n3Cc2ccc(F)cc2C#N)CC1 [Example T78, 2-(3-chloro-4-(9-(2-cyano-4-fluorobenzyl)-6-(1-methylcyclopropoxy)-9H-purin-8-yl)phenyl)acetamide]
IC50 [1]: 5010 nM

CNS(=O)(=O)c1ccc(-c2nc3c(OC4(C)CC4)ncnc3n2Cc2cc(C)ccn2)c(Cl)c1 [Example T30, 3-chloro-N-methyl-4-(6-(1-methylcyclopropoxy)-9-((4-methylpyridin-2-yl)methyl)-9H-purin-8-yl)benzenesulfonamide]
IC50 [1]: 631 nM

Cc1ccnc(Cn2c(-c3ccc(C(=O)N(C)CCO)cc3Cl)nc3c(OC4(C)CC4)ncnc32)c1 [Example T220, 3-chloro-N-(2-hydroxyethyl)-N-methyl-4-(6-(1-methylcyclopropoxy)-9-((4-methylpyridin-2-yl)methyl)-9H-purin-8-yl)benzamide]
IC50 [4]: 3160 nM

CC[C@H](CO)NC(=O)c1ccc(-c2nc3c(OC4(C)CC4)ncnc3n2Cc2cc(C)ccn2)c(Cl)c1 [Example T361, (R)-3-chloro-N-(1-hydroxybutan-2-yl)-4-(6-(1-methylcyclopropoxy)-9-((4-methylpyridin-2-yl)methyl)-9H-purin-8-yl)benzamide]
IC50 [3]: 631 nM

Cc1ccnc(Cn2c(-c3ccc(OCC(=O)NCCO)cc3Cl)nc3c(OC4(C)CC4)ncnc32)c1 [Example T226, 2-(3-chloro-4-(6-(1-methylcyclopropoxy)-9-((4-methylpyridin-2-yl)methyl)-9H-purin-8-yl)phenoxy)-N-(2-hydroxyethyl)acetamide]
IC50 [4]: 158 nM
